Laboratory results from patent US4176116A, “Dipeptide derivatives” (Hoffmann-La Roche Inc., priority 1976, dated 1979).
Peptide text beside a SMILES is read from it. * marks the point of attachment. Tos = Cc1ccc(S(=O)(=O)*)cc1; Isobutyryl = CC(C)C(=O)*; Pentanoyl = CCCCC(=O)*; PhAc = O=C(Cc1ccccc1)*; Piv = CC(C)(C)C(=O)*; Bz = O=C(c1ccccc1)*

What follows are compounds tested against T1, human granulocyte elastase (Homo sapiens, UniProt P08246) (assay: in vitro elastase inhibition, test method of Visser and Blout). Settings: human granulocyte elastase as the enzyme; read-out: I50 (concentration which gives 50% inhibition of the human granulocyte elastase).
T1 sequence (P08246 30-267): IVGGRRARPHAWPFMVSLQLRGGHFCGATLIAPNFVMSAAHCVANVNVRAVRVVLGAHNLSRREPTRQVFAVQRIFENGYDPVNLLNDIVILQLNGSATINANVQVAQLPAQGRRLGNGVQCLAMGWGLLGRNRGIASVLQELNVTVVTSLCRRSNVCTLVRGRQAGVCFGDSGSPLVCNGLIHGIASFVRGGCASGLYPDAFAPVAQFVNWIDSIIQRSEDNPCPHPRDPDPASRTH
Format: biochemical
Source text: Acta 268 (1972) 257, using porcine pancreatic elastase as the enzyme. The results obtained with representative dipeptide derivatives in this test are given in Table I hereinafter, the Ki being the inhibitor constant in millimoles per liter:
The result obtained with a representative dipeptide derivative in this test is given in Table II hereinafter, the I50 being the concentration in millimoles per liter which gives 50% inhibition of the human granulocyte elastase: […]

IC50 [µM] | Compound
900 | CCNC(=O)[C@@H]1CCCN1C(=O)[C@H](C)NS(=O)(=O)c1ccc(C)cc1 [N-(p-Toluenesulphonyl)-L-alanyl-L-proline ethylamide] (Tos-Ala-Pro-NHEt)

These compounds were tested against porcine pancreatic elastase (Sus scrofa, UniProt P00772) in the same assay as above. Settings: porcine pancreatic elastase as the enzyme; read-out: Ki (inhibitor constant).
Format: biochemical
Source text: Acta 268 (1972) 257, using porcine pancreatic elastase as the enzyme. The results obtained with representative dipeptide derivatives in this test are given in Table I hereinafter, the Ki being the inhibitor constant in millimoles per liter: […]

Chain of porcine pancreatic elastase (P00772 27-266): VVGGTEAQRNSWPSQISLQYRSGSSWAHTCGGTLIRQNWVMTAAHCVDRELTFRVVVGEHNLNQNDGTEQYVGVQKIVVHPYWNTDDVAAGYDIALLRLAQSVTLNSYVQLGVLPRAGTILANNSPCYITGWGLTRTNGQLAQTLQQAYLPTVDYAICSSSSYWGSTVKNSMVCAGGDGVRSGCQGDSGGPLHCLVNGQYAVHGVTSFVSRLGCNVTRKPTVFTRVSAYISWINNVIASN

Compound | Ki [µM]
CCCCC(=O)N[C@@H](C)C(=O)N1CCC[C@H]1C(=O)NCC [N-(n-Valeryl)-L-alanyl-L-proline ethylamide] (Pentanoyl-Ala-Pro-NHEt) | 80
CCNC(=O)[C@H](C)NC(=O)[C@H](C)NC(=O)c1ccccc1 [N-Benzoyl-L-alanyl-L-alanine ethylamide] (Bz-Ala-Ala-NHEt) | 120
CCNC(=O)[C@@H]1CCCN1C(=O)[C@H](C)NC(=O)c1ccccc1 [N-Benzoyl-L-alanyl-L-proline ethylamide] (Bz-Ala-Pro-NHEt) | 26
CCNC(=O)[C@@H]1CCCN1C(=O)[C@H](C)NC(=O)Cc1ccccc1 [N-Phenacetyl-L-alanyl-L-proline ethylamide] (PhAc-Ala-Pro-NHEt) | 86

Now from value to compound:

Ki [µM] | Compound
10 | CCNC(=O)[C@@H]1CCCN1C(=O)[C@H](C)NC(=O)C1CCCCC1 [N-Cyclohexylcarbonyl-L-alanyl-L-proline ethylamide]
60 | CCNC(=O)[C@@H]1CCCN1C(=O)[C@H](C)NC(=O)C(C)C [N-Isobutanoyl-L-alanyl-L-proline ethylamide] (Isobutyryl-Ala-Pro-NHEt)
90 | CCNC(=O)[C@@H]1CCCN1C(=O)[C@H](C)NC(=O)C(C)(C)C [N-Pivaloyl-L-alanyl-L-proline ethylamide] (Piv-Ala-Pro-NHEt)
